Marks after values point to notes of the source that are not given here.
Experiments:
[1] = tested on: Puccinia recondita f. sp. tritici; test: Test I: wheat leaf rust, preventive spray on wheat seedlings, visual disease rating; details: for pest or weed control at 200 µg/mL: 192 h, read-out: Test I rating (% disease control)
Botrytis cinerea = test: Test B: tomato Botrytis, preventive spray on tomato seedlings, visual disease rating; details: for pest or weed control at 200 µg/mL: Botrytis cinerea, in Solanum lycopersicum, 120 h, read-out: Test B rating (% disease control)
Septoria tritici = test: Test G: wheat leaf blotch, preventive spray on wheat seedlings, visual disease rating; details: for pest or weed control at 200 µg/mL: Zymoseptoria tritici, in Triticum aestivum, 504 h, read-out: Test G rating (% disease control)
Alternaria solani = test: Test C: tomato early blight, preventive spray on tomato seedlings, visual disease rating; details: for pest or weed control at 200 µg/mL: Alternaria solani, in Solanum lycopersicum, 168 h, read-out: Test C rating (% disease control)
[2] = tested on: Erysiphe graminis f sp. tritici; test: Test J: wheat powdery mildew, preventive spray on wheat seedlings, visual disease rating; details: for pest or weed control at 200 µg/mL: Blumeria graminis, in Triticum aestivum, 192 h, read-out: Test J rating (% disease control)
Septoria nodorum = test: Test F: Septoria glume blotch, preventive spray on wheat seedlings, visual disease rating; details: for pest or weed control at 200 µg/mL: Parastagonospora nodorum, in Triticum aestivum, 192 h, read-out: Test F rating (% disease control)
[3] = tested on: Puccinia recondita f. sp. tritici; test: Test H: wheat leaf rust, curative spray on inoculated wheat seedlings, visual disease rating; details: for pest or weed control at 200 µg/mL: 144 h, read-out: Test H rating (% disease control)
[4] = wheat leaf rust, preventive, 100 = 100% disease control, 0 = no control relative to controls
[5] = tomato Botrytis, 100 = 100% disease control, 0 = no control relative to controls
[6] = wheat leaf blotch, 100 = 100% disease control, 0 = no control relative to controls
[7] = tomato early blight, 100 = 100% disease control, 0 = no control relative to controls
[8] = wheat powdery mildew, 100 = 100% disease control, 0 = no control relative to controls
[9] = Septoria glume blotch, 100 = 100% disease control, 0 = no control relative to controls
[10] = wheat leaf rust, curative, 100 = 100% disease control, 0 = no control relative to controls
[11] = wheat leaf rust, preventive spray, 100 = 100% disease control, 0 = no control
[12] = tomato Botrytis, preventive spray, 100 = 100% disease control, 0 = no control
[13] = wheat leaf blotch, preventive spray, 100 = 100% disease control, 0 = no control
[14] = tomato early blight, preventive spray, 100 = 100% disease control, 0 = no control
[15] = wheat powdery mildew, preventive spray, 100 = 100% disease control, 0 = no control
[16] = Septoria glume blotch on wheat, preventive spray, 100 = 100% disease control, 0 = no control
[17] = wheat leaf rust, curative spray, 100 = 100% disease control, 0 = no control

SMILES | Test I rating (% disease control) [1, 4] | Test B rating (% disease control) (Botrytis cinerea; [5]) | Test G rating (% disease control) (Septoria tritici; [6]) | Test C rating (% disease control) (Alternaria solani; [7]) | Test J rating (% disease control) [2, 8] | Test F rating (% disease control) (Septoria nodorum; [9]) | Test H rating (% disease control) [3, 10] | Test I rating (% disease control) [1, 11] | Test B rating (% disease control) (Botrytis cinerea; [12]) | Test G rating (% disease control) (Septoria tritici; [13]) | Test C rating (% disease control) (Alternaria solani; [14]) | Test J rating (% disease control) [2, 15] | Test F rating (% disease control) (Septoria nodorum; [16]) | Test H rating (% disease control) [3, 17] | also measured
Cc1nn(C)c(Nc2ccc(F)cc2F)c1-c1cccc(Cl)c1Cl [compound 302] |  |  |  |  |  |  |  |  |  |  |  |  |  |  | Test I rating (% disease control), marked * ([1]; wheat leaf rust, preventive, rating marked with asterisk (*), meaning not given): 18* %; Test B rating (% disease control), marked * (Botrytis cinerea; tomato Botrytis, rating marked with asterisk (*), meaning not given): 99* %; Test G rating (% disease control), marked * (Septoria tritici; wheat leaf blotch, rating marked with asterisk (*), meaning not given): 99* %; Test C rating (% disease control), marked * (Alternaria solani; tomato early blight, rating marked with asterisk (*), meaning not given): 0* %; Test J rating (% disease control), marked * ([2]; wheat powdery mildew, rating marked with asterisk (*), meaning not given): 97* %; Test F rating (% disease control), marked * (Septoria nodorum; Septoria glume blotch, rating marked with asterisk (*), meaning not given): 0* %; Test H rating (% disease control), marked * ([3]; wheat leaf rust, curative, rating marked with asterisk (*), meaning not given): 0* %
Cc1nn(C)c(Nc2cc(C#N)ccc2Cl)c1-c1ccc(F)cc1Cl [compound 235] | 0% | 84% | 17% | 0% | 79% | 0% | 0% |  |  |  |  |  |  |  | 
COc1cc(Oc2c(-c3c(F)cc(F)cc3F)c(C)nn2C)ccc1Cl [compound 164] | 9% | 49% | 99% | 57% | 97% | 0% | 15% |  |  |  |  |  |  |  | 
Cc1nn(C)c(Nc2c(F)cc(F)cc2F)c1-c1c(F)cc(C#N)cc1F [compound 133] |  |  |  |  |  |  |  | 100% | 100% | 99% | 100% | 94% | 60% | 0% | 
Cc1cc(Oc2c(-c3c(F)cc(F)cc3F)c(C)nn2C)ccc1Br [compound 165] | 0% | 0% | 52% | 0% | 99% | 0% | 8% |  |  |  |  |  |  |  | 
Cc1nn(C)c(Oc2c(F)cc(C#N)cc2F)c1-c1ccc(F)cc1Br [Compound 232, 4-[[4-(2-bromo-4-fluorophenyl)-1,3-dimethyl-1H-pyrazol-5-yl]oxy]-3,5-difluorobenzonitrile] |  |  |  |  |  |  |  |  |  |  |  |  |  |  | pest or weed control at 200 µg/mL [1]: 100%; pest or weed control at 200 µg/mL (Botrytis cinerea): 100%; pest or weed control at 200 µg/mL (Septoria tritici): 100%; pest or weed control at 200 µg/mL (Alternaria solani): 99%; pest or weed control at 200 µg/mL [2]: 100%; pest or weed control at 200 µg/mL (Septoria nodorum): 99%; pest or weed control at 200 µg/mL [3]: 0%
Cc1nn(C)c(Nc2ncccc2Cl)c1-c1c(F)cc(F)cc1F [compound 241] | 100% | 99% | 100% | 99% | 100% | 0% | 97% |  |  |  |  |  |  |  | 
Cc1nn(C)c(Nc2ncc(Cl)cc2Cl)c1-c1cccc(Cl)c1Cl [compound 303] |  |  |  |  |  |  |  |  |  |  |  |  |  |  | Test I disease control rating ([1]; wheat leaf rust, sprayed the day before inoculation, 100 = 100% disease control, 0 = no disease control relative to controls): 92%; Test B disease control rating (Botrytis cinerea; tomato Botrytis, 100 = 100% disease control, 0 = no disease control relative to controls): 99%; Test G disease control rating (Septoria tritici; wheat leaf blotch, sprayed the day before inoculation, 100 = 100% disease control, 0 = no disease control relative to controls): 98%; Test C disease control rating (Alternaria solani; tomato early blight, 100 = 100% disease control, 0 = no disease control relative to controls): 0%; Test J disease control rating ([2]; wheat powdery mildew, sprayed the day before inoculation, 100 = 100% disease control, 0 = no disease control relative to controls): 71%; Test F disease control rating (Septoria nodorum; Septoria glume blotch on wheat, 100 = 100% disease control, 0 = no disease control relative to controls): 0%; Test H disease control rating ([3]; wheat leaf rust, sprayed after inoculation, 100 = 100% disease control, 0 = no disease control relative to controls): 0%
COc1cc(F)c(-c2c(C)nn(C)c2Nc2ccc(OC)cc2OC)c(F)c1 [compound 51] |  |  |  |  |  |  |  | 89% | 100% | 100% | 0% | 78% | 0% | 0% | 
Cc1nn(C)c(Nc2ccc(F)cc2F)c1-c1c(F)cc(O)cc1F [compound 103] |  |  |  |  |  |  |  | 91% | 100% | 95% | 64% | 0% | 0% | 0% | 
Cc1ccc(-c2c(C)nn(C)c2Oc2ccc([N+](=O)[O-])cc2Cl)cc1 [compound 52] |  |  |  |  |  |  |  | 92% | 54% | 97% | 0% | 64% | 0% | 0% | 
Cc1nn(C)c(Nc2c(F)cc(F)cc2F)c1-c1ccccc1F [compound 182] | 95% | 97% | 100% | 99% | 99% | 87% | 0% |  |  |  |  |  |  |  | 
Cc1nn(C)c(Nc2c(F)cc(F)cc2Cl)c1-c1ccc(F)cc1Br [Compound 292, 4-(2-bromo-4-fluorophenyl)-N-(2-chloro-4,6-difluorophenyl)-1,3-dimethyl-1H-pyrazol-5-amine] |  |  |  |  |  |  |  |  |  |  |  |  |  |  | pest or weed control at 200 µg/mL [1]: 100%; pest or weed control at 200 µg/mL (Botrytis cinerea): 100%; pest or weed control at 200 µg/mL (Septoria tritici): 100%; pest or weed control at 200 µg/mL (Alternaria solani): 99%; pest or weed control at 200 µg/mL [2]: 100%; pest or weed control at 200 µg/mL (Septoria nodorum): 96%; pest or weed control at 200 µg/mL [3]: 92%
COc1cc(F)c(-c2c(C)nn(C)c2Nc2ccc(Cl)c(F)c2)c(F)c1 [compound 49] |  |  |  |  |  |  |  | 89% | 100% | 99% | 17% | 79% | 35% | 0% | 
Cc1nn(C)c(Oc2ccc(Cl)c(F)c2)c1-c1c(F)cc(F)cc1F [compound 129] |  |  |  |  |  |  |  | 0% | 99% | 96% | 0% | 0% | 0% | 0% | 

Source: patent publication US10448639B2, “Fungicidal pyrazoles” (FMC CORPORATION, priority 2009, dated 2019)
